Reference: ChEMBL document CHEMBL1201862, “PubChem BioAssay data set” (2004)
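Tested at 5 concentrations; 48 h exposure; 96-well plates; endpoints linearly interpolated, else capped at highest concentration. GI50 is the concentration that inhibits growth by half.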 The source made the active and inactive calls. Cut-off read from the data, not from the text of the source: active = GI50 up to about 1.1 µM and inactive = higher.

Experiments:
Assay in all cases: NCI tumour cell line growth inhibition, 48 h
T47D = system: T47D
CCRF-CEM = system: CCRF-CEM
NCI-H460 = system: NCI-H460
BT-549 = system: BT-549
Hs-578T = system: Hs-578T
DU-145 = system: DU-145
SW-620 = system: SW-620
ACHN = system: ACHN
CAKI-1 = system: CAKI-1
HCT-15 = system: HCT-15
OVCAR-5 = system: OVCAR-5
PC-3 = system: PC-3
HT-29 = system: HT-29
MDA-MB-435 = system: MDA-MB-435
Malme-3M = system: Malme-3M
A498 = system: A498

Row | Structure (SMILES) | GI50 (T47D) | GI50 (CCRF-CEM) | GI50 (NCI-H460) | GI50 (BT-549) | GI50 (Hs-578T) | GI50 (DU-145) | GI50 (SW-620) | GI50 (ACHN) | GI50 (CAKI-1) | GI50 (HCT-15) [µM] | GI50 (OVCAR-5) | GI50 (PC-3) | GI50 (HT-29) | GI50 (MDA-MB-435) | GI50 (Malme-3M) | GI50 (A498)
1 | Cn1c2ccccc2n2c(=O)c3cc([N+](=O)[O-])ccc3c(C#N)c12 | > 100 µM (inactive) | > 100 µM (inactive) | > 100 µM (inactive) | > 100 µM (inactive) | > 100 µM (inactive) | > 100 µM (inactive) | > 100 µM (inactive) | 75.3 µM (inactive) | > 10 µM (inactive) | > 100 | > 100 µM (inactive) | > 100 µM (inactive) | > 100 µM (inactive) | > 100 µM (inactive) | – | –
2 | COc1ccc2c(c1)C(=O)CC1c3cnccc3C(=O)N21 (stereo unspecified) | > 100 µM (inactive) | – | > 67.9 µM (inactive) | > 100 µM (inactive) | – | > 100 µM (inactive) | > 100 µM (inactive) | > 100 µM (inactive) | > 100 µM (inactive) | > 100 | > 100 µM (inactive) | > 100 µM (inactive) | > 100 µM (inactive) | > 31.6 µM (inactive) | > 100 µM (inactive) | > 100 µM (inactive)
3 | O=C(OCc1ccccc1)C(Cc1ccc(OCc2ccccc2)cn1)NC(=O)C(F)(F)F (stereo unspecified) | – | > 10 µM (inactive) | > 100 µM (inactive) | > 100 µM (inactive) | > 100 µM (inactive) | > 100 µM (inactive) | > 100 µM (inactive) | > 100 µM (inactive) | > 100 µM (inactive) | 46.3 | > 100 µM (inactive) | > 100 µM (inactive) | 57.9 µM (inactive) | 92.9 µM (inactive) | > 100 µM (inactive) | > 100 µM (inactive)
4 | CN1CCOC1(C)CO (stereo unspecified) | > 100 µM (inactive) | > 100 µM (inactive) | > 100 µM (inactive) | > 100 µM (inactive) | > 100 µM (inactive) | – | > 100 µM (inactive) | > 100 µM (inactive) | > 100 µM (inactive) | > 100 | > 100 µM (inactive) | > 100 µM (inactive) | > 100 µM (inactive) | > 100 µM (inactive) | > 100 µM (inactive) | > 100 µM (inactive)
5 | CCOC(=O)CC[C@H](NC(=O)N[C@H](C)c1ccccc1)C(=O)OCC | – | 22.6 µM (inactive) | > 100 µM (inactive) | > 100 µM (inactive) | – | 83.2 µM (inactive) | > 100 µM (inactive) | 53.5 µM (inactive) | > 100 µM (inactive) | > 100 | > 100 µM (inactive) | 84.7 µM (inactive) | > 100 µM (inactive) | 27.9 µM (inactive) | – | > 100 µM (inactive)
6 | O=C1CC(CC(O)[C@@H]2CCCC[C@@H]2O)CC(=O)N1c1ccccc1 (stereo partly specified) | – | > 100 µM (inactive) | > 100 µM (inactive) | > 100 µM (inactive) | > 100 µM (inactive) | > 100 µM (inactive) | > 100 µM (inactive) | > 100 µM (inactive) | > 100 µM (inactive) | > 100 | > 100 µM (inactive) | > 100 µM (inactive) | > 100 µM (inactive) | > 100 µM (inactive) | > 100 µM (inactive) | > 100 µM (inactive)
7 | Cc1cccc(-c2cc(=S)c3cc(N4CCCC4)ccc3[nH]2)c1 | > 100 µM (inactive) | > 100 µM (inactive) | – | – | > 100 µM (inactive) | > 100 µM (inactive) | > 100 µM (inactive) | > 100 µM (inactive) | > 100 µM (inactive) | > 100 | > 100 µM (inactive) | > 100 µM (inactive) | – | > 100 µM (inactive) | – | > 100 µM (inactive)
8 | O=C1/C(=C/c2cccc([N+](=O)[O-])c2)N=C(c2ccccc2)N1c1nc2ccc(Sc3ccccc3)cc2[nH]1 | 47.2 µM (inactive) | – | 25 µM (inactive) | 88.7 µM (inactive) | 35.5 µM (inactive) | – | 37.2 µM (inactive) | > 100 µM (inactive) | 65.5 µM (inactive) | 35.6 | > 100 µM (inactive) | 35.4 µM (inactive) | 45.2 µM (inactive) | 13.3 µM (inactive) | 63.1 µM (inactive) | 87.7 µM (inactive)
9 | CCCC1CCC(=C2C(=O)CCC2=O)O1 (stereo unspecified) | > 100 µM (inactive) | > 100 µM (inactive) | > 100 µM (inactive) | > 100 µM (inactive) | > 100 µM (inactive) | > 100 µM (inactive) | > 100 µM (inactive) | > 100 µM (inactive) | > 100 µM (inactive) | > 100 | > 100 µM (inactive) | > 100 µM (inactive) | > 100 µM (inactive) | > 100 µM (inactive) | – | –
10 | [N-]=[N+]=NC[C@H]1OCO[C@H](CN=[N+]=[N-])[C@H]2OCCOCCOc3ccccc3OCCOCCO[C@@H]21 | > 100 µM (inactive) | > 100 µM (inactive) | > 100 µM (inactive) | > 100 µM (inactive) | > 100 µM (inactive) | > 100 µM (inactive) | > 100 µM (inactive) | – | > 100 µM (inactive) | > 100 | – | > 100 µM (inactive) | > 100 µM (inactive) | > 100 µM (inactive) | > 100 µM (inactive) | –
11 | CN(CCNC(=O)c1c[nH]c2c1Cc1ccccc1-2)CCNC(=O)c1c[nH]c2c1Cc1ccccc1-2 | – | – | 35.1 µM (inactive) | 36.6 µM (inactive) | 35.3 µM (inactive) | 60.1 µM (inactive) | 39.4 µM (inactive) | 43.6 µM (inactive) | 48.6 µM (inactive) | 30.9 | > 100 µM (inactive) | 18.2 µM (inactive) | 35.1 µM (inactive) | 17.1 µM (inactive) | 82.8 µM (inactive) | –
12 | Cc1nn(C(=O)Cc2ccccc2)c2c1C(c1ccc3ccccc3c1O)SC(=N)N2 (stereo unspecified) | > 100 µM (inactive) | 22.1 µM (inactive) | > 100 µM (inactive) | > 100 µM (inactive) | > 100 µM (inactive) | > 100 µM (inactive) | > 100 µM (inactive) | > 100 µM (inactive) | > 100 µM (inactive) | > 100 | – | > 100 µM (inactive) | > 100 µM (inactive) | > 100 µM (inactive) | – | > 100 µM (inactive)
13 | O=P(O)(Cc1ccccc1)c1ccccc1-c1ccccc1 | > 100 µM (inactive) | > 100 µM (inactive) | 62.7 µM (inactive) | > 100 µM (inactive) | > 100 µM (inactive) | > 100 µM (inactive) | > 100 µM (inactive) | > 100 µM (inactive) | > 100 µM (inactive) | > 100 | > 100 µM (inactive) | > 100 µM (inactive) | > 100 µM (inactive) | – | > 100 µM (inactive) | –
14 | Cc1ccc(S(=O)(=O)N(CCN)c2cc3c4c(c2)Oc2cccc5c2C4c2c(cccc2O3)O5)cc1 | – | 22.7 µM (inactive) | > 100 µM (inactive) | 47.2 µM (inactive) | 17 µM (inactive) | – | 36.5 µM (inactive) | 44.7 µM (inactive) | – | 81.1 | 21.2 µM (inactive) | 18.7 µM (inactive) | 14.9 µM (inactive) | 20.7 µM (inactive) | 10.5 µM (inactive) | 55.3 µM (inactive)
15 | Cc1nc2nnc(CCCCCCCCc3nnc4nc(C)[nH]n34)n2[nH]1 | – | > 100 µM (inactive) | > 100 µM (inactive) | > 100 µM (inactive) | – | > 100 µM (inactive) | > 100 µM (inactive) | > 100 µM (inactive) | > 100 µM (inactive) | > 100 | > 100 µM (inactive) | > 100 µM (inactive) | > 100 µM (inactive) | > 100 µM (inactive) | > 100 µM (inactive) | > 100 µM (inactive)
16 | CN(CCCCCl)P(=O)(OCc1ccc([N+](=O)[O-])o1)OC[C@H]1O[C@@H](n2cc(F)c(=O)[nH]c2=O)C[C@@H]1O (stereo partly specified) | – | 0.173 µM (active) | < 0.01 µM (active) | 2.84 µM (inactive) | 0.514 µM (active) | 0.569 µM (active) | 17.3 µM (inactive) | 0.0365 µM (active) | 0.0693 µM (active) | 21.6 | > 44.5 µM (inactive) | 4.34 µM (inactive) | 0.502 µM (active) | 5.85 µM (inactive) | 3.25 µM (inactive) | 0.0236 µM (active)
17 | NC(CCCCNC(=O)C(Cc1ccccc1)NC(=O)OCc1ccccc1)C(=O)NC(CCCCNC(=O)C(Cc1ccccc1)NC(=O)OCc1ccccc1)C(=O)NC(CCCCNC(=O)C(Cc1ccccc1)NC(=O)OCc1ccccc1)C(=O)NC(CCCCNC(=O)C(Cc1ccccc1)NC(=O)OCc1ccccc1)C(=O)NC(CCCCNC(=O)C(Cc1ccccc1)NC(=O)OCc1ccccc1)C(=O)NC(CCCCNC(=O)C(Cc1ccccc1)NC(=O)OCc1ccccc1)C(=O)O (stereo unspecified) | > 100 µM (inactive) | > 100 µM (inactive) | > 100 µM (inactive) | > 100 µM (inactive) | – | > 100 µM (inactive) | > 100 µM (inactive) | > 100 µM (inactive) | > 100 µM (inactive) | > 100 | > 100 µM (inactive) | > 100 µM (inactive) | > 100 µM (inactive) | > 100 µM (inactive) | > 100 µM (inactive) | –
18 | C=C(Br)CN(C#N)CC(=C)Br | > 100 µM (inactive) | > 100 µM (inactive) | > 100 µM (inactive) | – | > 100 µM (inactive) | > 100 µM (inactive) | > 100 µM (inactive) | > 100 µM (inactive) | > 100 µM (inactive) | > 100 | > 100 µM (inactive) | > 100 µM (inactive) | > 100 µM (inactive) | > 100 µM (inactive) | > 100 µM (inactive) | > 100 µM (inactive)
19 | NS(=O)(=O)c1ccc(NNc2c3ccccc3nc3c(C(=O)Nc4ccc(S(=O)(=O)Nc5ncccn5)cc4)cccc23)cc1 | > 25 µM (inactive) | > 25 µM (inactive) | > 25 µM (inactive) | > 25 µM (inactive) | > 25 µM (inactive) | > 25 µM (inactive) | > 25 µM (inactive) | > 25 µM (inactive) | > 25 µM (inactive) | > 25 | > 25 µM (inactive) | > 25 µM (inactive) | 10.2 µM (inactive) | > 25 µM (inactive) | > 25 µM (inactive) | –
